The numbers were not newly measured in patent publication US8518371B2, “Hypoxia-selective, weakly basic 2-nitroimidazole delivery agents and methods of use thereof” (Natural Pharmacia International, Inc., priority 2006, dated 2013), which cites them from elsewhere.

Bounds are passed on as bounds.

One data set relates to animal models. Conditions: in vivo.
For data set [1] the following is noted: in vivo.
The conditions of data set [2]: escalating, rarely to.

Turning to “disodium mercapto-closo-dodecaborate [BSH]”, the “selectivity for tumor cells” value in the data set with tumor cells is given as “moderate”. For the same compound, in the data set with animal models, the “safety and efficacy in animal models” value was “safe and efficacious”. Also, the “retention times in tissues” value in data set [1] was “low”.

Regarding `N[C@@H](Cc1ccc(B(O)O)cc1)C(=O)O` [BPA, L-4-dihydroxy-borylphenylalanine], the “selectivity for tumor cells” value in the data set with tumor cells was “moderate”. For the same compound, the “safety and efficacy in animal models” value with animal models is “safe and efficacious”. Besides, in data set [1], the “retention times in tissues” value is listed as “low”.

Turning to `CC[C@]1(O)C[C@@H]2CN(CCc3c([nH]c4ccccc34)[C@@](C(=O)OC)(c3cc4c(cc3OC)N(C)[C@H]3[C@@](O)(C(=O)OC)[C@H](OC(C)=O)[C@]5(CC)C=CCN6CC[C@]43[C@@H]65)C2)C1` [vinblastine], in data set [2], the MTD is on record as not above 18.5 mg/m^2.
